What follows are molecules tested against T1, human DLK (Homo sapiens, UniProt Q12852) (assay: DLK Kd Determinations (KINOMEscan KdELECT, DiscoveRx)). Details: fusion protein of full length human DLK (amino acids 1-859) and NFkB DNA binding domain; qPCR readout; duplicate.
T1 sequence (Q12852 1-859): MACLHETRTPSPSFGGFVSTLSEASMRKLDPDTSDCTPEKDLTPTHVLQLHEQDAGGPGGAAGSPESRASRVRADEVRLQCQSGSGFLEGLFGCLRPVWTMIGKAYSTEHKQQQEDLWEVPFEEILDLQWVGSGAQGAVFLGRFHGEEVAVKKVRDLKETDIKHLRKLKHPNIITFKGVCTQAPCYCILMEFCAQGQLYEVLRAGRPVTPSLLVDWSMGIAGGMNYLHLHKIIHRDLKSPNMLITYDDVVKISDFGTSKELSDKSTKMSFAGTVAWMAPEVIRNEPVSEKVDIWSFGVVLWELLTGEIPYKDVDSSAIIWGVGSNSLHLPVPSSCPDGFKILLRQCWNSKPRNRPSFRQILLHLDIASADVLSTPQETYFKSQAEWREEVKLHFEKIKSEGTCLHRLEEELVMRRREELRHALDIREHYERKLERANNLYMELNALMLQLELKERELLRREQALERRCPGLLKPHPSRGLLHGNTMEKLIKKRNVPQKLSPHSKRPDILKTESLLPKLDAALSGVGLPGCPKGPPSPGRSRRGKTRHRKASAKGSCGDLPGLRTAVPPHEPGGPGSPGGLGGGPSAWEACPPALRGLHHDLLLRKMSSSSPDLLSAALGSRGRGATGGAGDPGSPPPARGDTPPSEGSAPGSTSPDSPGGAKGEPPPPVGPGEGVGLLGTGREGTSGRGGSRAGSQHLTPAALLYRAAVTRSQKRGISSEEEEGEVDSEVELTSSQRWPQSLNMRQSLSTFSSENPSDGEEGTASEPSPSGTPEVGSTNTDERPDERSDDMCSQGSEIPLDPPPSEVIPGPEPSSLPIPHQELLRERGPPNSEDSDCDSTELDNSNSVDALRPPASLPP
Set-up: full length of human DLK (amino acids 1-859); host or cells: transiently transfected HEK293 cells; unpurified extract
How it was run: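 Kd values were fitted by Hill equation (slope −1) from duplicate 11-point 3-fold dilutions starting at 30,000 nM. Bead-immobilized ligand competed with compound for DNA-tagged full-length human DLK fusion in HEK293 extract (final DMSO 0.9%, 1 h, room temperature), with qPCR readout of bound kinase.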

| SMILES | Kd |
| --- | --- |
| Nc1ncc(-c2cn([C@H]3[C@@H]4CN(C5COC5)C[C@@H]43)c(C3CCCC3)n2)cc1OC(F)F [Example 64, 5-(2-cyclopentyl-1-((1R,5S,6s)-3-(oxetan-3-yl)-3-azabicyclo[3.1.0]hexan-6-yl)-1H-imidazol-4-yl)-3-(difluoromethoxy)pyridin-2-amine] | 120 nM |
| Nc1ncc(-c2cn([C@H]3[C@@H]4CNC[C@@H]43)c(CC(F)(F)F)n2)cc1C(F)(F)F [Example 120, 5-(1-((1R,5S,6s)-3-azabicyclo[3.1.0]hexan-6-yl)-2-(2,2,2-trifluoroethyl)-1H-imidazol-4-yl)-3-(trifluoromethyl)pyridin-2-amine] | 40 nM |
| CC(C)c1nc(-c2cnc(N)c(C(F)(F)F)c2)cn1[C@H]1C[C@H](F)C1 [Example 25, 5-(1-((1r,3r)-3-fluorocyclobutyl)-2-isopropyl-1H-imidazol-4-yl)-3-(trifluoromethyl)pyridin-2-amine] | 200 nM |
| CC(C)c1nc(-c2cnc(N)c(C(F)(F)F)c2)cn1[C@H]1[C@@H]2CN(CC(F)(F)F)C[C@@H]21 [Example 18, 5-(2-isopropyl-1-((1R,5S,6s)-3-(2,2,2-trifluoroethyl)-3-azabicyclo[3.1.0]hexan-6-yl)-1H-imidazol-4-yl)-3-(trifluoromethyl)pyridin-2-amine] | 720 nM |
| CC(C)c1nc(-c2cnc(N)c(C(F)(F)F)c2)cn1[C@H]1[C@@H]2CNC[C@@H]21 [Example 11, 5-(1-(3-azabicyclo[3.1.0]hexan-6-yl)-2-isopropyl-1H-imidazol-4-yl)-3-(trifluoromethyl)pyridin-2-amine] | 120 nM |
| Nc1ncc(-c2cn([C@H]3[C@@H]4CNC[C@@H]43)c(C3CC3)n2)cc1C(F)(F)F [Example 71, 5-(1-((1R,5S,6s)-3-azabicyclo[3.1.0]hexan-6-yl)-2-cyclopropyl-1H-imidazol-4-yl)-3-(trifluoromethyl)pyridin-2-amine] | 87 nM |
| Nc1ncc(-c2cn([C@H]3[C@@H]4CN(CC(F)F)C[C@@H]43)c(C3CC3)n2)cc1C(F)(F)F [Example 75, 5-(2-cyclopropyl-1-((1R,5S,6s)-3-(2,2-difluoroethyl)-3-azabicyclo[3.1.0]hexan-6-yl)-1H-imidazol-4-yl)-3-(trifluoromethyl)pyridin-2-amine] | 56 nM |
| Nc1ncc(-c2cn([C@H]3[C@@H]4CN(CC(F)F)C[C@@H]43)c(CC3CC3)n2)cc1C(F)(F)F [Example 61, 5-(2-(cyclopropylmethyl)-1-((1R,5S,6s)-3-(2,2-difluoroethyl)-3-azabicyclo[3.1.0]hexan-6-yl)-1H-imidazol-4-yl)-3-(trifluoromethyl)pyridin-2-amine] | 140 nM |
| CC(=O)N1C[C@@H]2[C@H](C1)[C@H]2n1cc(-c2cnc(N)c(OC(F)(F)F)c2)nc1CC1CC1 [Example 91, 1-((1R,5S,6s)-6-(4-(6-amino-5-(trifluoromethoxy)pyridin-3-yl)-2-(cyclopropylmethyl)-1H-imidazol-1-yl)-3-azabicyclo[3.1.0]hexan-3-yl)ethan-1-one] | 77 nM |
| CC(=O)N1C[C@@H]2[C@H](C1)[C@H]2n1cc(-c2cnc(N)c(OC(F)F)c2)nc1C1CC1 [Example 118, 1-((1R,5S,6s)-6-(4-(6-amino-5-(difluoromethoxy)pyridin-3-yl)-2-cyclopropyl-1H-imidazol-1-yl)-3-azabicyclo[3.1.0]hexan-3-yl)ethan-1-one] | 62 nM |
| CC(C)c1nc(-c2cnc(N)c(C(F)(F)F)c2)cn1C1COC1 [Example 29, 5-(2-isopropyl-1-(oxetan-3-yl)-1H-imidazol-4-yl)-3-(trifluoromethyl)pyridin-2-amine] | 1000 nM |
| CC1OCCn2cc(-c3cnc(N)c(C(F)(F)F)c3)nc21 (stereo not shown) [Example 5, 5-(8-methyl-6,8-dihydro-5H-imidazo[2,1-c][1,4]oxazin-2-yl)-3-(trifluoromethyl)pyridin-2-amine] | 3300 nM |
| Nc1ncc(-c2cn([C@H]3[C@@H]4CN(C5COC5)C[C@@H]43)c(C3CCC3)n2)cc1C(F)(F)F [Example 51, 5-(2-cyclobutyl-1-((1R,5S,6s)-3-(oxetan-3-yl)-3-azabicyclo[3.1.0]hexan-6-yl)-1H-imidazol-4-yl)-3-(trifluoromethyl)pyridin-2-amine] | 130 nM |
| COCCN1C[C@@H]2[C@H](C1)[C@H]2n1cc(-c2cnc(N)c(OC(F)(F)F)c2)nc1CC1CC1 [Example 100, 5-(2-(cyclopropylmethyl)-1-((1R,5S,6s)-3-(2-methoxyethyl)-3-azabicyclo[3.1.0]hexan-6-yl)-1H-imidazol-4-yl)-3-(trifluoromethoxy)pyridin-2-amine] | 66 nM |
| CC(=O)N1C[C@@H]2[C@H](C1)[C@H]2n1cc(-c2cnc(N)c(C(F)(F)F)c2)nc1CC(F)(F)F [Example 82, 1-((1R,5S,6s)-6-(4-(6-amino-5-(trifluoromethyl)pyridin-3-yl)-2-(2,2,2-trifluoroethyl)-1H-imidazol-1-yl)-3-azabicyclo[3.1.0]hexan-3-yl)ethan-1-one] | 97 nM |
| Nc1ncc(-c2cn([C@H]3[C@@H]4CN(CC(F)(F)F)C[C@@H]43)c(C3CC3)n2)cc1C(F)(F)F [Example 93, 5-(2-cyclopropyl-1-((1R,5S,6s)-3-(2,2,2-trifluoroethyl)-3-azabicyclo[3.1.0]hexan-6-yl)-1H-imidazol-4-yl)-3-(trifluoromethyl)pyridin-2-amine] | 270 nM |
| Nc1ncc(-c2cn([C@H]3[C@@H]4CN(CC(F)(F)F)C[C@@H]43)c(CC3CC3)n2)cc1OC(F)(F)F [Example 99, 5-(2-(cyclopropylmethyl)-1-((1R,5S,6s)-3-(2,2,2-trifluoroethyl)-3-azabicyclo[3.1.0]hexan-6-yl)-1H-imidazol-4-yl)-3-(trifluoromethoxy)pyridin-2-amine] | 340 nM |
| CC(C)c1nc(-c2cnc(N)c(C(F)(F)F)c2)cn1[C@H]1[C@@H]2CN(CCF)C[C@@H]21 [Example 16, 5-(1-((1R,5S,6s)-3-(2-fluoroethyl)-3-azabicyclo[3.1.0]hexan-6-yl)-2-isopropyl-1H-imidazol-4-yl)-3-(trifluoromethyl)pyridin-2-amine] | 68 nM |
| Nc1ncc(-c2cn([C@H]3[C@@H]4CN(CC(F)(F)F)C[C@@H]43)c(CC(F)(F)F)n2)cc1C(F)(F)F [Example 124, 5-(2-(2,2,2-trifluoroethyl)-1-((1R,5S,6s)-3-(2,2,2-trifluoroethyl)-3-azabicyclo[3.1.0]hexan-6-yl)-1H-imidazol-4-yl)-3-(trifluoromethyl)pyridin-2-amine] | 240 nM |
| CC(C)c1nc(-c2cnc(N)c(C(F)(F)F)c2)cn1[C@H]1[C@@H]2CN(C3COC3)C[C@@H]21 [Example 12, 5-(2-isopropyl-1-((1R,5S,6s)-3-(oxetan-3-yl)-3-azabicyclo[3.1.0]hexan-6-yl)-1H-imidazol-4-yl)-3-(trifluoromethyl)pyridin-2-amine] | 47 nM |
| Nc1ncc(-c2cn([C@H]3[C@@H]4CN(CCF)C[C@@H]43)c(CC(F)(F)F)n2)cc1C(F)(F)F [Example 123, 5-(1-((1R,5S,6s)-3-(2-fluoroethyl)-3-azabicyclo[3.1.0]hexan-6-yl)-2-(2,2,2-trifluoroethyl)-1H-imidazol-4-yl)-3-(trifluoromethyl)pyridin-2-amine] | 65 nM |
| Nc1ncc(-c2cn([C@H]3[C@@H]4CN(CC(F)(F)F)C[C@@H]43)c(CC3CC3)n2)cc1C(F)(F)F [Example 79, 5-(2-(cyclopropylmethyl)-1-((1R,5S,6s)-3-(2,2,2-trifluoroethyl)-3-azabicyclo[3.1.0]hexan-6-yl)-1H-imidazol-4-yl)-3-(trifluoromethyl)pyridin-2-amine] | 180 nM |
| CC(C)c1nc(-c2cnc(N)c(OC(F)F)c2)cn1[C@H]1[C@@H]2CN(CC(F)F)C[C@@H]21 [Example 112, 5-(1-((1R,5S,6s)-3-(2,2-difluoroethyl)-3-azabicyclo[3.1.0]hexan-6-yl)-2-isopropyl-1H-imidazol-4-yl)-3-(difluoromethoxy)pyridin-2-amine] | 160 nM |
| CC(C)c1nc(-c2cnc(N)c(C(F)(F)F)c2)cn1CC1CCOCC1 [Example 34, 5-(2-isopropyl-1-((tetrahydro-2H-pyran-4-yl)methyl)-1H-imidazol-4-yl)-3-(trifluoromethyl)pyridin-2-amine] | 870 nM |
| Nc1ncc(-c2cn([C@H]3[C@@H]4CN(CC(F)(F)F)C[C@@H]43)c(C3CC3)n2)cc1OC(F)F [Example 108, 5-(2-cyclopropyl-1-((1R,5S,6s)-3-(2,2,2-trifluoroethyl)-3-azabicyclo[3.1.0]hexan-6-yl)-1H-imidazol-4-yl)-3-(difluoromethoxy)pyridin-2-amine] | 140 nM |

— US20180057507A1, “INHIBITORS OF DUAL LEUCINE ZIPPER (DLK) KINASE FOR THE TREATMENT OF DISEASE” (Board of Regents, The University of Texas System, priority 2016, published 2018)
